Results: patent US20220323594A1, “LIPIDATED CATIONIC PEPTIDE-PEG COMPOSITIONS FOR NUCLEIC ACID DELIVERY” (NUTCRACKER THERAPEUTICS, INC., priority 2019, published 2022)

Assays:
[1] = Dynamic light scattering (DLS) of mRNA/peptoid formulations: particle size and polydispersity; assay type: physicochemical; conditions: Fluc mRNA/peptoid formulation; for Size PDI: size polydispersity index by DLS, 5:1 mass ratio; for Size (nm): volume average particle size/diameter by DLS, 5:1 mass ratio peptoid:cargo
Procedure: (§1) To prepare nanoparticle formulations, the amino lipidated peptoid is mixed by pipetting with nucleic acid at a mass ratio between approximately 1:1 (peptoid:cargo) and 20:1. Prior to formulation, amino lipidated peptoid and nucleic acid cargo were diluted in ethanol and acidic buffer (PBS adjusted to pH 5.5 with 0.1 M HCl) respectively to a volume ratio of 1:3 and to target a final cargo concentration of approximately 0.05 mg/mL to 0.2 mg/mL. The exemplary amino lipidated cationic peptoids described in Example 2 were combined with firefly luciferase (Fluc) mRNA to form nanoparticle compositions to be evaluated for therapeutic and/or prophylactic purposes in vitro or in vivo. The formulations were prepared according to the protocol of Example 3 and mixed by simple pipetting. The mRNA/peptoid formulation at a 5:1 mass ratio of peptoid:cargo were evaluated by dynamic light scattering (DLS) in order to determine the volume average particle size/diameter (nm) of the mRNA/peptoid complex and the size polydispersity index (PDI) within the formulation. The percentage of mRNA encapsulation for each formulation of the exemplary compounds were determined by fluorescence of the Qubit RNA HS (Invitrogen) dye before and after lysis of particles by Triton X-100.

[2] = test system: HeLa cells; assay: In vitro Fluc expression with variable peptoid:mRNA mass ratio, 2% DMG-PEG2000; assay type: cell-based; conditions: 24 h; for Observed Luciferase Expression (RLU) for Given Formulation Mass Ratio 2:1: 2% (w/w) DMG-PEG2000, peptoid:mRNA 2:1; for Observed Luciferase Expression (RLU) for Given Formulation Mass Ratio 3.5:1: 2% (w/w) DMG-PEG2000, peptoid:mRNA 3.5:1; for Observed Luciferase Expression (RLU) for Given Formulation Mass Ratio 5:1: 2% (w/w) DMG-PEG2000, peptoid:mRNA 5:1; for Observed Luciferase Expression (RLU) for Given Formulation Mass Ratio 7.5:1: 2% (w/w) DMG-PEG2000, peptoid:mRNA 7.5:1
Procedure: The charge ratio dependence of amino lipidated peptoid delivery vehicles was evaluated by formulating particles between Fluc mRNA and delivery vehicles at varying mass ratios. Formulations were varied between 2:1 and 7.5:1 peptoid:mRNA (w/w) ratios (2:1, 3.5:1, 5:1 and 7.5:1). In addition, the role of DMG-PEG2000 was also explored with the mass ratios, either by excluding DMG-PEG2000 or incorporating DMG-PEG2000 at 2% (w/w) relative to amino lipidated peptoid. Fluc expression from these formulations was measured in HeLa cells following treatment for 24 hours. […] FIGS. 6B and 6C show plots of the average bioluminescence (RLU) for HeLa cells treated with the formulations of exemplary amino lipidated cationic peptoid compounds 1-36, all formulated with 2% w/w DMG-PEG2000.

[3] = test system: HeLa cells; assay: In vitro expression of firefly luciferase (Fluc) after treatment with Fluc mRNA/amino lipidated peptoid formulations, no PEG or 2% DMG-PEG2000; assay type: cell-based
Procedure: The efficacy of mRNA/amino lipidated peptoid formulations was evaluated in vitro based on their ability to deliver the firefly luciferase (Fluc) reporter gene to cultured cells. Amino lipidated peptoids were combined with Fluc mRNA at a 5:1 w/w ratio, and the resulting particles were added to cultured HeLa cells at a dose of 100 ng/well (in 100 μL total volume). The resulting luciferase expression (RLU) was measured by a luminescence plate reader after 6 hours and 24 hours of treatment. […] In addition to evaluating nanoparticle complexes formed between mRNA cargos and amino lipidated peptoids alone, multicomponent formulations containing a small amount of PEG-lipid DMG-PEG2000 were also tested for in vitro Fluc mRNA delivery. In these formulations, DMG-PEG2000 was pre-mixed with candidate peptoid at an overall 2% incorporation (w/w), while maintaining the same 5:1 mass ratio of peptoid:mRNA used previously.

[4] = MTT viability assay after treatment with Fluc mRNA/amino lipidated peptoid formulations; assay type: cell-based; conditions: human, HeLa cells
Summary of the method: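 Formulations (peptoid:mRNA 5:1 mass ratio, 2% w/w DMG-PEG2000) were applied at 100 ng Fluc mRNA per well for 8 h, followed by 48 h of growth. Cells then received 1.5 mg/mL MTT for 2 h, and formazan signal was normalized to untreated cells.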

[5] = mRNA encapsulation by fluorescence of Qubit RNA HS dye before and after lysis with Triton X-100; assay type: physicochemical; conditions: percentage of mRNA encapsulation; Fluc mRNA/peptoid formulation, 5:1 mass ratio
Procedure: as §1, with “The” for “To prepare nanoparticle formulations, the amino lipidated peptoid is mixed by pipetting with nucleic acid at a mass ratio between approximately 1:1 (peptoid:cargo) and 20:1. Prior to formulation, amino lipidated peptoid and nucleic acid cargo were diluted in ethanol and acidic buffer (PBS adjusted to pH 5.5 with 0.1 M HCl) respectively to a volume ratio of 1:3 and to target a final cargo concentration of approximately 0.05 mg/mL to 0.2 mg/mL. The”

[6] = no PEG, peptoid:Fluc mRNA 5:1 w/w, 100 ng/well, 6 h of treatment
[7] = no PEG, peptoid:Fluc mRNA 5:1 w/w, 100 ng/well, 24 h of treatment
[8] = with 2% (w/w) DMG-PEG2000, peptoid:mRNA 5:1, 6 h after treatment
[9] = with 2% (w/w) DMG-PEG2000, peptoid:mRNA 5:1, 24 h after treatment

| SMILES | Size PDI [1] | Size (nm) [1] [nm] | Observed Luciferase Expression (RLU) for Given Formulation Mass Ratio 2:1 [2] [RLU] | Observed Luciferase Expression (RLU) for Given Formulation Mass Ratio 3.5:1 [2] [RLU] | Observed Luciferase Expression (RLU) for Given Formulation Mass Ratio 5:1 [2] [RLU] | Observed Luciferase Expression (RLU) for Given Formulation Mass Ratio 7.5:1 [2] [RLU] | Luciferase Expression (RLU) 6 h [3, 6] [RLU] | Luciferase Expression (RLU) 24 h [3, 7] [RLU] | Luciferase Expression (RLU) 6 h [3, 8] [RLU] | Luciferase Expression (RLU) 24 h [3, 9] [RLU] | viability at 8 h, 500 ng/well ([4]; Relative Viability (%) 2% PEG) [%] | viability at 8 h, 500 ng/well ([4]; Relative Viability (%) No PEG) [%] | % Encapsulation [5] [%] |
| --- | --- | --- | --- | --- | --- | --- | --- | --- | --- | --- | --- | --- | --- |
| CCCCCCCCCCN(CC(N)=O)C(=O)CN(CCCCCCCCCC)C(=O)CN(CCCCCCCCCC)C(=O)CN(CCCCCCCCCC)C(=O)CN(CCCCCCCCCC)C(=O)CN(CCCCCCCCCC)C(=O)CN(CCc1ccccc1)C(=O)CN(CCc1ccccc1)C(=O)CN(CCN)C(=O)CN(CCc1ccccc1)C(=O)CN(CCc1ccccc1)C(=O)CN(CCN)C(=O)CN(CCc1ccccc1)C(=O)CN(CCc1ccccc1)C(=O)CNCCN [Compound 22] | 0.538 | 748.2 | 3.53E+01 | 8.83E+01 | 2.50E+02 | 5.80E+02 | 6.63E+01 | 6.77E+01 | 9.23E+01 | 2.13E+01 | 118 | 104 | 65.4 |
| CCCCCCCCCCN(CC(N)=O)C(=O)CN(CCCCCCCCCC)C(=O)CN(CCCCCCCCCC)C(=O)CN(CCCCCCCCCC)C(=O)CN(CCc1ccccc1)C(=O)CN(CCc1ccccc1)C(=O)CN(CCNC)C(=O)CN(CCc1ccccc1)C(=O)CN(CCc1ccccc1)C(=O)CN(CCNC)C(=O)CN(CCc1ccccc1)C(=O)CN(CCc1ccccc1)C(=O)CNCCNC [Compound 25] | 0.021 | 773.3 | 3.86E+02 | 8.41E+03 | 5.03E+03 | 5.66E+03 | 3.93E+02 | 2.07E+03 | 1.81E+03 | 7.30E+02 | 85.9 | 77.9 | 8.4 |
| CCCCCCCCCCN(CC(N)=O)C(=O)CN(CCCCCCCCCC)C(=O)CN(CCc1ccccc1)C(=O)CN(CCc1ccccc1)C(=O)CN(CCNC)C(=O)CN(CCc1ccccc1)C(=O)CN(CCc1ccccc1)C(=O)CN(CCNC)C(=O)CN(CCc1ccccc1)C(=O)CN(CCc1ccccc1)C(=O)CNCCNC [Compound 27] | 0.606 | 438.7 | 6.27E+03 | 8.40E+02 | 8.69E+02 | 6.41E+02 | 9.88E+02 | 7.40E+02 | 3.13E+02 | 6.36E+02 | 91.1 | 93.9 | 50.9 |
| CCCCCCCCCCN(CC(N)=O)C(=O)CN(CCCCCCCCCC)C(=O)CN(CCc1ccccc1)C(=O)CN(CCc1ccccc1)C(=O)CN(CCCN)C(=O)CN(CCc1ccccc1)C(=O)CN(CCc1ccccc1)C(=O)CN(CCCN)C(=O)CN(CCc1ccccc1)C(=O)CN(CCc1ccccc1)C(=O)CNCCCN [Compound 30] | 0.455 | 282.8 | 4.27E+04 | 3.43E+03 | 3.46E+03 | 1.47E+03 | 2.79E+03 | 1.29E+04 | 1.79E+03 | 1.52E+03 | 88 | 86.5 | 8.4 |
